Values of other authors as cited in publication PMC13029847, “Decoding the Liver–Blood Partitioning of Neonicotinoid Insecticides: Evidence from Paired Human Liver and Blood Biomonitoring” (Toxics, 2026).
Converted amounts (≈) assume the structure as drawn.

Conditions: ref PubChem Open Chemistry Database

**Q.** For CN1COCN(Cc2cnc(Cl)s2)/C1=N\[N+](=O)[O-] [THIA, thiamethoxam], which Solubility is on record?
**A.** 4.1 g/L (≈ 14.1 mM)

**Q.** For CCN(Cc1ccc(Cl)nc1)/C(=C/[N+](=O)[O-])NC [NIT, nitenpyram], which Solubility is on record?
**A.** 840 g/L (≈ 3100 mM)
